In ChEMBL document CHEMBL1201862, “PubChem BioAssay data set” (2004):
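Compound exposure: 48 hours, 5 concentrations, 96-well plates. Abbreviation: GI50, concentration required for 50% inhibition of growth.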 Active and inactive are the calls of the source. Rule as the data show it: active = GI50 up to about 1.1 µM and inactive = higher.

Assays:
Assay in all cases: growth of human tumour cells (NCI), 48 h
DMS-114 = tested on: DMS-114
DMS-273 = tested on: DMS-273
HOP-18 = tested on: HOP-18
KM-20L2 = tested on: KM-20L2
LXFL 529 = tested on: LXFL 529
M19-MEL = tested on: M19-MEL
RXF 631 = tested on: RXF 631
SNB-78 = tested on: SNB-78
XF498 = tested on: XF498

Measured: GI50

COC1=C(C(=O)OC(C)(C)C)C23CCCCC2(C(C(=O)OC(C)(C)C)=C(OC)C3C(=O)OC(C)(C)C)C1C(=O)OC(C)(C)C (stereo unspecified)
inactive: DMS-114 9.84 µM | DMS-273 10.1 µM | HOP-18 12.5 µM | KM-20L2 16.7 µM | LXFL 529 23.2 µM | M19-MEL 25 µM | RXF 631 8.15 µM | SNB-78 72.9 µM | XF498 38.1 µM

CCCCCCCCCCCCCP(=O)(O)O
inactive: DMS-114 > 100 µM | DMS-273 50.9 µM | HOP-18 > 100 µM | KM-20L2 > 100 µM | LXFL 529 > 100 µM | M19-MEL > 100 µM | RXF 631 > 100 µM | SNB-78 > 100 µM | XF498 > 100 µM

COc1cccc(N2C(=O)c3c(c4[nH]c5ccccc5c4c4ccc(C(C)(C)C)cc34)C2=O)c1
inactive: DMS-114 > 100 µM | DMS-273 > 100 µM | HOP-18 > 100 µM | KM-20L2 > 100 µM | LXFL 529 > 100 µM | M19-MEL > 100 µM | RXF 631 > 100 µM | SNB-78 > 100 µM | XF498 > 100 µM

Cc1cccc(C2=NC(C)(C)C(C)(C)N=C2c2cccc(C)n2)n1
inactive: DMS-114 30.8 µM | DMS-273 > 100 µM | HOP-18 > 100 µM | KM-20L2 84.1 µM | LXFL 529 70.5 µM | M19-MEL > 100 µM | RXF 631 > 100 µM | SNB-78 > 100 µM | XF498 > 100 µM
